Results reported in patent publication US12545681B2, “Compound used as RET kinase inhibitor and application thereof” (TYK Medicines, Inc., priority 2020, dated 2026).
Substitutions are numbered along the chain they refer to. Read-outs that look alike come from different tables or passages of the source.

What was measured:
RET = conditions: cited from earlier work
Ba/F3-KIF5B-RET-V804L = target: T1, Ba/F3-KIF5B-RET-V804L (Homo sapiens, UniProt P07949, V804L); test: Cell anti-proliferation (CellTiter-Glo), Ba/F3-KIF5B-RET-V804L cells; format: cell-based; conditions: cell viability, 72 h incubation
T1 construct: KIF5B (fusion partner, N-terminal part of kinesin-1 heavy chain, P33176); host or cells: Ba/F3 (murine pro-B cells); the other entry of the earlier key: KIF5B (P33176, Kinesin-1 heavy chain)
T1 sequence (P07949 713-1063 V804L limits assumed): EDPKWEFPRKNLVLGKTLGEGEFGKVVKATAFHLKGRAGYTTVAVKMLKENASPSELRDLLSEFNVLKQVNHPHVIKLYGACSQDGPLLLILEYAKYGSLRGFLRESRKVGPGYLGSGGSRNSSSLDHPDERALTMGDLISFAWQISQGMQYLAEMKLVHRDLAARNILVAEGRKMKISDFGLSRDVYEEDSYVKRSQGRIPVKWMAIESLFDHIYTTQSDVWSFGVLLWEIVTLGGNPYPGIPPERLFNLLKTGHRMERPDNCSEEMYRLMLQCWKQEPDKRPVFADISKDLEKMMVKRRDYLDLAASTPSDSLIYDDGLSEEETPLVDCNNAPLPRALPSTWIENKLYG
Protocol: (§1) Ba/F3-KIF5B-RET, Ba/F3-KIF5B-RET-V804L and Ba/F3-KIF5B-RET-V804M cells were constructed by PreceDo Pharmaceuticals Co., Ltd.
(§2) Ba/F3-KIF5B-RET, Ba/F3-KIF5B-RET-V804L and Ba/F3-KIF5B-RET-V804M medium: RPMI-1640+10% FBS+1% P/S.
(§3) A 1000×solution of the compound was prepared with DMSO, the compound was diluted to 20 times to obtain the final concentration with a growth medium, and 2 μl 1000×cpd was added to 98 μl growth medium.
(§4) Cells were centrifuged and resuspended with growth medium and cell counting was performed using a cell counter. The cell suspension was diluted with growth medium to the desired concentration. 95 uL of the diluted cell suspension was taken out to a 96-well plate. 5 μL of 20×compound solution was added to the 96-well plate to a final DMSO concentration of 0.1% per well. The 96-well plate was incubated for 72 h at 37° C. with 5% CO2.
(§5) The 96-well plate was equilibrated to room temperature before the assay, 50 μl of CellTiter-Glo® Reagent was added to each well, the cells were fully lysed by shaking for 2 minutes on a shaker, incubated for 10 minutes at room temperature, and Paradigm was used to detect and record the […] readings.
(§6) Cell viability was analyzed using Graphpad 7.0 software according to the formula Cell viability (CV %)=(RLU compound−RLU blank)/(RLU control−RLU blank)*100%, and the corresponding IC50 data were calculated, in Table 1, the following names are used: <10.00 nM=A; 10.01-50.0 nM=B; >50 nM=C.

Ba/F3-KIF5B-RET cells = test: In vivo efficacy study, subcutaneous Ba/F3-KIF5B-RET tumor in nude mice; design: species or system BALB/c nude mice; conditions: 10 mg/kg P.O. BID x 3 weeks
Protocol: Cell culture: Ba/F3-KIF5B-RET cell line was cultured with 1640 medium (Biological Industries)+10%/f fetal bovine serum (BI)+1% double antibody (Penicillin Streptomycin solution, Corning, USA) at 37° C. with 5% CO2. Two passages were performed for one week. When the cell saturation was 80%-90% and the number reached the required level, the cells were collected, counted and inoculated.
Animals: BALB/c nude mice, female, 6-8 weeks of age, weighing 18-22 g. A total of 18 mice were required, provided by Beijing Vital River Laboratory Animal Technology Co., Ltd.
Tumor inoculation: 0.2 ml (2×106) Ba/F3-KIF5B-RET cells (plus stromal gel, volume ratio 1:1) were inoculated subcutaneously on the right posterior dorsum of each mouse, and group dosing was started when the average tumor volume reached about 150-200 mm^3.
Experimental index: Tumor volume and body weight were measured twice a week. Tumor volume was measured by vernier calipers with the formula TV=0.5 a×b2, where a is the long diameter of the tumor and b is the short diameter of the tumor.

Ba/F3-KIF5B-RET = target: T2, Ba/F3-KIF5B-RET (Homo sapiens, UniProt P07949); test: Cell anti-proliferation (CellTiter-Glo), Ba/F3-KIF5B-RET cells; format: cell-based; conditions: cell viability, 72 h incubation, CellTiter-Glo
T2 construct: KIF5B (fusion partner, N-terminal part of kinesin-1 heavy chain, P33176); host or cells: Ba/F3 (murine pro-B cells); the other entry of the earlier key: KIF5B (P33176, Kinesin-1 heavy chain)
T2 sequence (P07949 713-1063 limits assumed): T1 sequence (P07949 713-1063 V804L limits assumed) with L92V
Protocol: as §1, §2, §3, §4, §5, §6

Ba/F3-KIF5B-RET-V804M = target: T3, Ba/F3-KIF5B-RET-V804M (Homo sapiens, UniProt P07949, V804M); test: Cell anti-proliferation (CellTiter-Glo), Ba/F3-KIF5B-RET-V804M cells; format: cell-based; conditions: cell viability, 72 h incubation
T3 construct: KIF5B (fusion partner, N-terminal part of kinesin-1 heavy chain, P33176); host or cells: Ba/F3 (murine pro-B cells); the other entry of the earlier key: KIF5B (P33176, Kinesin-1 heavy chain)
T3 sequence (P07949 713-1063 V804M limits assumed): T1 sequence (P07949 713-1063 V804L limits assumed) with L92M
Protocol: as §1, §2, §3, §4, §5, §6

CO[C@]1(C(=O)N[C@@H](C)c2ccc(-n3cc(F)cn3)nc2)CC[C@H](c2nc(C)cc(Nc3cc(C)[nH]n3)n2)CC1 [BLU-667]
overall remission rate (ORR) (RET; patients with medullary thyroid carcinoma): 40%
overall remission rate (ORR) (RET; patients with non-small cell lung cancer): 50%
overall remission rate (ORR) (RET; tumor patients with RET fusion and mutation): 45%

CO[C@]1(C(=O)N[C@@H](C)c2ccc(-n3cc(F)cn3)nc2)CC[C@H](c2nc(Nc3cc(C)[nH]n3)c3ccn(C)c3n2)CC1 [Control Example 1, reference compound]
IC50 (Ba/F3-KIF5B-RET-V804L): < 10 nM
Tumor Volume(mm^3) 0 day (Ba/F3-KIF5B-RET cells; 0 day): 169.95 mm^3
Tumor Volume(mm^3) 2 days (Ba/F3-KIF5B-RET cells; 2 days): 157.73 mm^3
Tumor Volume(mm^3) 5 days (Ba/F3-KIF5B-RET cells; 5 days): 144.57 mm^3
Tumor Volume(mm^3) 9 days (Ba/F3-KIF5B-RET cells; 9 days): 185.92 mm^3
Tumor Volume(mm^3) 12 days (Ba/F3-KIF5B-RET cells; 12 days): 204.18 mm^3
Tumor Volume(mm^3) 16 days (Ba/F3-KIF5B-RET cells; 16 days): 272.83 mm^3
Tumor Volume(mm^3) 19 days (Ba/F3-KIF5B-RET cells; 19 days): 277.52 mm^3
Tumor Volume(mm^3) 22 days (Ba/F3-KIF5B-RET cells; 22 days): 292.41 mm^3
IC50 (Ba/F3-KIF5B-RET): < 10 nM
IC50 (Ba/F3-KIF5B-RET-V804M): < 10 nM
